Consider 36 molecules from patent publication US6828315B1, “1-Amino triazoloc4,3-a! quinazoline-5-ones and/or -5-thiones inhibiting phosphodiesterase IV” (Warner-Lambert LLC, priority 1999, dated 2004).

Where a name gives a salt, the structure may show the parent alone.

`CCN(CC)CCn1c(=O)c2cc(Br)ccc2n2c(N3CCCC3)nnc12` (as salt: HCl) [Compound 69, 7-Bromo-4-(2diethylamino-ethyl)-1-pyrrolidin-1-yl-4H-[1,2,4)triazolo[4,3-a]quinazolin-5-one]: the melting point (as a rule, the temperature of the solid-liquid transition) was 215 °C.
Under `O=c1c2cc(Br)ccc2n2c(N3CCCC3)nnc2n1Cc1ccc2c(c1)OCO2` (hydrate or solvate) [Compound 53, 4-Benzo[1,3]dioxol-5-ylmethyl-7-bromo-1-pyrrolidin-1-yl-4H-[1,2,4]triazolo[4,3-a]quinazolin-5-one] stands 194 °C; under `O=c1nc2n(Cc3ccc4c(c3)OCO4)nc(N3CCCC3)n2c2ccc(Br)cc12` (hydrate or solvate) [Compound 149, 3-(benzo[1,3]dioxol-5-ylmethyl)-7-bromo-1-(pyrrolidin-1-yl)-3H-[1,2,4]triazolo[4,3-a]quinazolin-5-one], 234 °C; under `O=c1c2ccccc2n2c(N3CCCCCC3)nnc2n1CC=Cc1ccccc1` [Compound 6, 1-Azepan-1-yl-4-(3-phenyl-allyl)-4H-[1,2,4]triazolo[4,3-a]quinazolin-5-one], 144 °C.
Take `O=c1c2cc(Cl)ccc2n2c(N3CCCCCC3)nnc2n1Cc1ccccc1Cl` [Compound 9, 1-(azepan-1-yl)-7-chloro-4-(2-chlorobenzyl)-4H-[1,2,4]triazolo[4,3-a]quinazolin-5-one]: the melting point fell in the range of 160 to 162 °C.
In the case of `O=c1c2cc(Cl)ccc2n2c(N3CCCCCC3)nnc2n1Cc1cccc(Cl)c1` [Compound 10, 1-(azepan-1-yl)-7-chloro-4-(3-chlorobenzyl)-4H-[1,2,4]triazolo[4,3-a]quinazolin-5-one] it was 157 °C; in that of `O=c1c2cc(Cl)ccc2n2c(N3CCCCCC3)nnc2n1Cc1ccc(C(F)(F)F)cc1` [Compound 14, 1-(azepan-1-yl)-7chloro-4-(4-(trifluoromethyl)benzyl)-4H-[1,2,4]triazolo[4,3-a]quinazolin-5-one], 138 °C; in that of `COc1ccccc1Cn1c(=O)c2cc(Cl)ccc2n2c(N3CCCCCC3)nnc12` [Compound 16, 1-(azepan-1-yl)-7-chloro-4-(2-methoxybenzyl)-4H-[1,2,4]triazolo[4,3-a]quinazolin-5-one], 98 to 100 °C.
On to `COc1cccc(Cn2c(=O)c3cc(Cl)ccc3n3c(N4CCCCCC4)nnc23)c1` [Compound 17, 1-(azepan-1-yl)-7-chloro-4-(3-methoxybenzyl)-4H-[1,2,4]triazolo[4,3-a]quinazolin-5-one], for which the melting point was determined as 138 °C.
Under `COc1ccc(Cn2c(=O)c3cc(Cl)ccc3n3c(N4CCCCCC4)nnc23)cc1` [Compound 18, 1-(azepan-1-yl)-7-chloro-4-(4-methoxybenzyl)-4H-[1,2,4]triazolo[4,3-a]quinazolin-5-one] stands 138 °C.
In the case of `O=c1c2cc(Cl)ccc2n2c(N3CCCCCC3)nnc2n1Cc1ccccn1` [Compound 21, 1-(azepan-1-yl)-7-chloro-4-(2-pyridylmethyl)-4H-[1,2,4]triazolo[4,3-a]quinazolin-5-one] it was 152 °C; in that of `O=c1c2cc(Cl)ccc2n2c(N3CCCCCC3)nnc2n1Cc1ccncc1` [Compound 23, 1-(azepan-1-yl)-7-chloro-4-(4-pyridylmethyl)-4H-[1,2,4]triazolo[4,3-a]quinazolin-5-one], 137 °C; in that of `COc1ccc(CCn2c(=O)c3cc(Cl)ccc3n3c(N4CCCCCC4)nnc23)cc1` [Compound 25, 1-(azepan-1-yl)-7-chloro-4-[2-(4-methoxyphenyl)ethyl]-4H-[1,2,4]triazolo[4,3-a]quinazolin-5-one], 136 °C.
In the case of `O=C(Cn1c(=O)c2cc(Cl)ccc2n2c(N3CCCCCC3)nnc12)c1ccccc1` [Compound 27, 1-Azepan-1-yl-7-chloro-4-(2-oxo-2-phenyl-ethyl)-4H-[1,2,4]triazolo[4,3-a]quinazolin-5-one], the melting point was in the range of 105 to 107 °C.
In the case of `O=C(Cn1c(=O)c2cc(Cl)ccc2n2c(N3CCCCCC3)nnc12)c1ccc(Cl)cc1` [Compound 29, 1-(azepan-1-yl)-7-chloro-4[2-(4-chlorophenyl)-2-oxoethyl]-4H-[1,2,4]triazolo[4,3-a]quinazolin-5-one] it was 190 °C.
In the case of `COC(=O)c1cc(C(=O)Cn2c(=O)c3cc(Cl)ccc3n3c(N4CCCCCC4)nnc23)ccc1OC` [Compound 30, 5-[(1-(azepan-1-yl)-7-chloro-5-oxo-5H-[1,2,4]triazolo[4,3-a]-quinazolin-4-yl)acetyl]-2-methoxybenzoic acid methyl ester] it was 140 °C; in that of `O=c1c2cc(Cl)ccc2n2c(N3CCCC3)nnc2n1Cc1cccnc1` [Compound 31, 7-Chloro-4-pyridin-3-ylmethyl-1-pyrrolidin-1-yl-4H-[1,2,4]triazolo[4,3-a]quinazolin-5-one], 176 °C; in that of `O=c1c2cc(Br)ccc2n2c(N3CCCCCC3)nnc2n1Cc1ccc(F)cc1` [Compound 33, 1-Azepan-1-yl-7-bromo-4-(4-fluoro-benzyl)-4H-[1,2,4]triazolo[4,3-a]quinazolin-5-one], 158 °C.
In the case of `O=c1c2cc(Br)ccc2n2c(N3CCCCCC3)nnc2n1Cc1cccnc1` [Compound 36, 1-(azepan-1-yl)-7-bromo-4-(3-pyridinylmethyl)-4H-[1,2,4]triazolo[4,3-a]quinazolin-5-one] it was 180 °C.
`O=c1c2cc(Br)ccc2n2c(N3CCCCCC3)nnc2n1CC=Cc1ccc(Cl)cc1` [Compound 38, 1-Azepan-1-yl-7-bromo-4-[3-(4-chloro-phenyl)-allyl]-4H-[1,2,4]triazolo[4,3-a]quinazolin-5-one]: the melting point worked out at 176 °C.
Under `COc1ccc(C=CCn2c(=O)c3cc(Br)ccc3n3c(N4CCCCCC4)nnc23)cc1` [Compound 39, 1-Azepan-1-yl-7-bromo-4-[3-(4-methoxy-phenyl)-allyl]-4H-[1,2,4]triazolo[4,3-a]quinazolin-5-one] stands 129 °C.
On to `N#Cc1cccc(Cn2c(=O)c3cc(Br)ccc3n3c(N4CCCC4)nnc23)c1` [Compound 45, 3-(7-Bromo-5-oxo-1-pyrrolidin-1-yl-5H-[1,2,4]triazolo[4,3-a]quinazolin-4-ylmethyl)benzonitrile], for which the melting point amounted to 206 °C.
In the case of `COc1cc(Cn2c(=O)c3cc(Br)ccc3n3c(N4CCCC4)nnc23)cc(OC)c1OC` [Compound 55, 7-Bromo-1-pyrrolidin-1-yl-4-(3,4,5-trimethoxy-benzyl)-4H-[1,2,4]triazolo[4,3-a]quinazolin-5-one] it was 141 to 143 °C; in that of `O=C(O)Cc1ccc(Cn2c(=O)c3cc(Br)ccc3n3c(N4CCCC4)nnc23)cc1` [Compound 56, [4-(7-Bromo-5-oxo-1-pyrrolidin-1-yl-5H-[1,2,4]triazolo[4,3-a]quinazolin-4-ylmethyl)-phenyl]-acetic acid], 260 °C.
Under `O=c1c2cc(Br)ccc2n2c(N3CCCC3)nnc2n1CC=Cc1ccccc1` [Compound 58, 7-Bromo-4-(3-phenyl-allyl)-1-pyrrolidin-1-yl-4H-[1,2,4]triazolo[4,3-a]quinazolin-5-one] stands 110 °C; under `O=c1c2cc(Br)ccc2n2c(N3CCCC3)nnc2n1Cc1c[nH]cn1` [Compound 63, 7-Bromo-4-(1H-imidazol-4-ylmethyl)-1-pyrrolidin-1-yl-4H-[1,2,4]triazolo[4,3-a]quinazolin-5-one], 290 °C (dec.); under `Cc1noc(C)c1Cn1c(=O)c2cc(Br)ccc2n2c(N3CCCC3)nnc12` [Compound 64, 7-Bromo-4-(3,5-dimethyl-isoxazol-4-ylmethyl)-1-pyrrolidin-1-yl-4H-[1,2,4]triazolo[4,3-a]quinazolin-5-one], 221 °C.
On to `O=c1c2cc(Br)ccc2n2c(N3CCCC3)nnc2n1CC1CCCC1` [Compound 65, 7-Bromo-4-cyclopentylmethyl-1-pyrrolidin-1-yl-4H-[1,2,4]triazolo[4,3-a]quinazolin-5-one], for which the melting point was determined as 155 °C.
Regarding `CCCCn1c(=O)c2cc(Br)ccc2n2c(N3CCCC3)nnc12` [Compound 66, 7-Bromo-4-butyl-1-pyrrolidin-1-yl-4H-[1,2,4]triazolo[4,3-a]quinazolin-5-one], the melting point was 135 °C.
Regarding `O=c1c2cc(Br)ccc2n2c(N3CCCC3)nnc2n1CC(F)(F)F` [Compound 67, 7-Bromo-1-pyrrolidin-1-yl-4-(2,2,2-trifluoro-ethyl)-4H-[1,2,4]triazolo[4,3-a]quinazolin-5-one], the melting point came out at 202 °C.
In the case of `O=c1c2cc(Br)ccc2n2c(N3CCCC3)nnc2n1CCO` [Compound 68, 7-Bromo-4-(2-hydroxy-ethyl)-1-pyrrolidin-1-yl-4H-[1,2,4]triazolo[4,3-a]quinazolin-5-one] it was 240 °C; in that of `C#CCn1c(=O)c2cc(Br)ccc2n2c(N3CCCC3)nnc12` [Compound 70, 7-Bromo-4-prop-2-ynyl-1-pyrrolidin-1-yl-4H-[1,2,4]triazolo[4,3-a]quinazolin-5-one], 204 °C.
Under `O=c1c2cc(Br)ccc2n2c(N3CCCC3)nnc2n1CCOc1ccccc1` [Compound 71, 7-Bromo-4-(2-phenoxy-ethyl)-1-pyrrolidin-1-yl-4H-[1,2,4]triazolo[4,3-a]quinazolin-5-one] stands 171 °C; under `O=c1c2cc(Br)ccc2n2c(N3CCCC3)nnc2n1CCSc1ccccc1` [Compound 72, 7-Bromo-4-(2-phenylsulfenyl-ethyl)-1-pyrrolidin-1-yl-4H-[1,2,4]triazolo[4,3-a]quinazolin-5-one], 122 °C; under `COC(=O)C(c1ccccc1)n1c(=O)c2cc(Br)ccc2n2c(N3CCCC3)nnc12` (stereo not drawn) [Compound 73, (7-Bromo-5-oxo-1-pyrrolidin-1-yl-5H-[1,2,4]triazolo[4,3-a]quinazolin-4-yl)-phenyl-acetic acid methyl ester], 184 °C.
Under `N#Cc1ccc(Cn2c(=O)c3cc(Br)ccc3n3c(N4CCCCC4)nnc23)cc1` [Compound 74, 4-(7-Bromo-5-oxo-1-piperidin-1-yl-5H-[1,2,4]triazolo[4,3-a]quinazolin-4-ylmethyl)-benzonitrile] stands 200 °C.
